# Measured values: the supplement of paper PMC10307832
# Columns and labels:
# Assay in all cases: relative viability (nuclei count vs DMSO), 5 days (fraction); higher = more cells survive
# [1] = compound: CN[C@@H]1C[C@H]2O[C@@](C)([C@@H]1OC)n1c3ccccc3c3c4c(c5c6ccccc6n2c5c31)C(=O)NC4 [Staurosporine] + Cc1nc(NC(=O)N2CCC[C@H]2C(N)=O)sc1-c1ccnc(C(C)(C)C(F)(F)F)c1 [Alpelisib] (partner 2 µM)
# In short: (§1)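 Lung cancer cell lines in 1536-well plates were dosed by pin tool the day after seeding, either with one drug alone or with a fixed anchor-drug dose plus five library-drug doses (not always all listed) in √10 steps. After 5 days, cells were fixed and their nuclei stained in one step (final 0.05% Triton X-100, 1% formaldehyde, 1 ug/ml Hoechst), then counted on 4× images. Relative viability is the nuclei count in treated wells divided by that in vehicle wells. Values are medians of duplicate plates.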
# [2] = compound: CN[C@@H]1C[C@H]2O[C@@](C)([C@@H]1OC)n1c3ccccc3c3c4c(c5c6ccccc6n2c5c31)C(=O)NC4 [Staurosporine] + C[C@@H](Oc1cc(-c2cnn(C3CCNCC3)c2)cnc1N)c1c(Cl)ccc(F)c1Cl [Crizotinib] (partner 1 µM)
# In short: as §1
# [3] = compound: CC1=C(CC(=O)O)c2cc(F)ccc2/C1=C\c1ccc([S+](C)[O-])cc1 [Sulindac] + COc1cc2c(Oc3ccc(NC(=O)C4(C(=O)Nc5ccc(F)cc5)CC4)cc3F)ccnc2cc1OCCCN1CCOCC1 [Foretinib] (partner 0.25 µM)
# In short: as §1
# [4] = compound: CN[C@@H]1C[C@H]2O[C@@](C)([C@@H]1OC)n1c3ccccc3c3c4c(c5c6ccccc6n2c5c31)C(=O)NC4 [Staurosporine] + O=C(c1cc(Cc2n[nH]c(=O)c3ccccc23)ccc1F)N1CCN(C(=O)C2CC2)CC1 [Olaparib] (partner 8 µM)
# In short: as §1
cell line,measurement,setting,value
UMC-11,relative viability,[1]; first compound 0.005 µM,0.882
same,relative viability,[1]; first compound 0.01581 µM,0.427
same,relative viability,[1]; first compound 0.05 µM,0.461
same,relative viability,[1]; first compound 0.1581 µM,0.145
same,relative viability,[1]; first compound 0.5 µM,0.0643
same,relative viability,[2]; first compound 0.005 µM,0.544
same,relative viability,[2]; first compound 0.01581 µM,0.406
same,relative viability,[2]; first compound 0.05 µM,0.207
same,relative viability,[2]; first compound 0.1581 µM,0.0703
same,relative viability,[2]; first compound 0.5 µM,0.0402
same,relative viability,[3]; first compound 0.08 µM,1.33
same,relative viability,[3]; first compound 0.253 µM,1.12
same,relative viability,[3]; first compound 0.8 µM,0.739
same,relative viability,[3]; first compound 2.53 µM,0.986
same,relative viability,[3]; first compound 8 µM,1.12
same,relative viability,[4]; first compound 0.005 µM,0.375
same,relative viability,[4]; first compound 0.01581 µM,0.212
same,relative viability,[4]; first compound 0.05 µM,0.154
same,relative viability,[4]; first compound 0.1581 µM,0.0879
same,relative viability,[4]; first compound 0.5 µM,0.0921
